PubChem BioAssay (NCI)
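Five concentrations, 48 hours, 96-well plates. Definition used: TGI = concentration required for complete inhibition of growth.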

Assays:
Test in all cases: NCI tumour cell line growth inhibition, 48 h
NCI-H23 lung = system: NCI-H23 lung
OVCAR-3 ovarian = system: OVCAR-3 ovarian
MOLT-4 leukemia = system: MOLT-4 leukemia
HOP-92 NSCLC = system: HOP-92 NSCLC
M14 melanoma = system: M14 melanoma
OVCAR-5 ovarian = system: OVCAR-5 ovarian
MDA-MB-435 = system: MDA-MB-435
HCT-15 colon = system: HCT-15 colon
RPMI-8226 leukemia = system: RPMI-8226 leukemia
HOP-62 NSCLC = system: HOP-62 NSCLC
SNB-19 CNS = system: SNB-19 CNS
SK-MEL-28 melanoma = system: SK-MEL-28 melanoma
SF-268 CNS = system: SF-268 CNS

Row | Structure (SMILES) | TGI (NCI-H23 lung) [µM] | TGI (OVCAR-3 ovarian) [µM] | TGI (MOLT-4 leukemia) [µM] | TGI (HOP-92 NSCLC) [µM] | TGI (M14 melanoma) [µM] | TGI (OVCAR-5 ovarian) [µM] | TGI (MDA-MB-435) [µM] | TGI (HCT-15 colon) [µM] | TGI (RPMI-8226 leukemia) [µM] | TGI (HOP-62 NSCLC) [µM] | TGI (SNB-19 CNS) [µM] | TGI (SK-MEL-28 melanoma) [µM] | TGI (SF-268 CNS) [µM]
1 | COC(=O)C1=NN2c3ccccc3CN([C@@H](C)c3ccccc3)C(=O)[C@@H]2C1 | > 100 | 97.9 | 46.5 | > 100 | 57.5 | > 100 | 34 | > 100 | 62.7 | > 100 | > 100 | > 100 | > 100
2 | Cn1ncc2c(NCCc3ccccc3)nc(Cl)nc21 | > 100 | > 100 | 39.9 | 58.4 | 39.7 | 36.4 | 44.9 | > 100 | 47.4 | 81.3 | > 100 | 76.4 | > 100
3 | Cn1cc(-c2ccc(CCOC3CCCCO3)cc2)c2c(C#N)cccc21 (centres undefined) | > 100 | > 100 | > 100 | > 100 | > 100 | > 100 | > 100 | > 100 | > 100 | > 100 | > 100 | 42.4 | > 100
4 | COC(=O)C(Cc1ccccc1)NS(=O)(=O)c1ccc(-c2c3nc(c(-c4ccc(S(=O)(=O)NC(Cc5ccccc5)C(=O)OC)cc4)c4ccc([nH]4)c(-c4ccc(S(=O)(=O)NC(Cc5ccccc5)C(=O)OC)cc4)c4nc(c(-c5ccc(S(=O)(=O)NC(Cc6ccccc6)C(=O)OC)cc5)c5ccc2[nH]5)C=C4)C=C3)cc1 (centres undefined) | > 100 | > 100 | > 100 | > 100 | > 100 | > 100 | > 100 | > 100 | > 100 | > 100 | > 100 | > 100 | > 100
5 | C=CCC1(O)c2cccc(O)c2C(=O)c2c(O)cccc21 | 56.9 | > 100 | > 100 | 88.9 | 59.3 | > 100 | > 100 | 47.9 | > 100 | > 100 | – | > 100 | > 100
6 | Cc1ccc(S(=O)(=O)C2=c3ncccc3=C3C(=O)c4ccccc4C(=O)C32)cc1 (centres undefined) | > 100 | > 100 | > 100 | > 89.5 | > 100 | > 83.9 | > 100 | > 100 | > 100 | 9.14 | 79.9 | > 100 | > 90.3
7 | COC(=O)[C@]1(c2cc3ccccc3[nH]2)CC2CN(CC(=O)N(C)OC)C1C1OC(C)(C)OC21 (some centres undefined) | > 100 | > 100 | 49.9 | > 100 | > 100 | > 100 | > 100 | > 100 | 74 | > 100 | > 100 | > 100 | > 100
8 | CS(=O)(=O)C(=Cc1ccccc1Cl)S(C)(=O)=O | > 100 | > 100 | > 100 | > 100 | > 100 | > 100 | > 100 | > 100 | > 100 | > 100 | > 100 | > 100 | > 100
9 | CC(C)(C)OC(=O)C(C1NC(C(=O)O)C(C)(C)S1)N1C(=O)c2ccccc2C1=O (centres undefined) | > 100 | > 100 | > 100 | > 100 | > 100 | > 100 | > 100 | > 100 | > 100 | > 100 | > 100 | > 100 | > 100
10 | O=[N+]([O-])C(=C1Nc2ccccc2N1)C(Cl)=C(Cl)Cl | > 100 | 53.1 | 56.3 | > 100 | > 100 | > 100 | > 100 | > 100 | > 100 | > 100 | > 100 | > 100 | > 100
11 | CC(=O)OCCn1c(Cc2ccc([N+](=O)[O-])cc2)nn(C(C)=O)c1=O | > 100 | > 100 | > 100 | > 100 | > 100 | > 100 | > 100 | > 100 | > 100 | – | > 100 | > 100 | > 100
12 | COc1ccc(OC)c(C2CCc3cnc4nc(N)nc(N)c4c3C2)c1 (centres undefined) | > 100 | > 100 | > 100 | > 100 | > 100 | > 100 | > 100 | > 100 | > 100 | > 100 | > 100 | > 100 | > 100
13 | Cc1ccc(S(=O)(=O)n2ccn3c(=O)cc(C)nc23)cc1 | > 10 | > 10 | > 10 | > 10 | > 10 | > 10 | > 10 | > 10 | > 10 | > 10 | > 10 | > 10 | > 10
14 | COc1cc(OC)c(/C=N/N=C(\N)NO)c(OC)c1 | > 100 | > 100 | > 100 | > 100 | > 100 | > 100 | > 100 | > 100 | > 100 | > 100 | > 100 | > 100 | > 100
15 | Nc1nc(Cl)c2ncn(Cc3ccccc3CCl)c2n1 | 8.84 | 10.9 | > 100 | 31.1 | 40.1 | 39.8 | 27 | 7.45 | > 100 | 62.3 | 27.5 | 20.7 | 14.5
16 | CC[C@H](CCCCC1CC[C@@H]2CC(=O)C[C@H]12)OC (some centres undefined) | > 100 | > 100 | > 100 | > 100 | > 100 | > 100 | > 100 | > 100 | > 100 | > 100 | > 100 | > 100 | > 100
17 | COc1cc2c(cc1OC)-c1cc3ccccc3c(=O)n1CCC2 | 65.1 | 60.4 | 10.4 | 68.3 | > 59.1 | > 100 | > 53.7 | 27.5 | 29.4 | > 75.3 | > 100 | > 73.6 | > 100
